20 molecules from ChEMBL document CHEMBL4130478, “Improved proteolytic stability and potent activity against Leishmania infantum trypanothione reductase of α/β-peptide foldamers conjugated to cell-penetrating peptides” (Eur J Med Chem, 2017) can be followed below.

The source made the active and inactive calls. No cut-off for these calls is given here. A value given as a limit tells only on which side of the number the result lay.

The target of series [1] is T1, Trypanothione reductase (Leishmania infantum, UniProt A4HSF7). In words: Inhibition of oxidoreductase activity of recombinant Leishmania infantum trypanothione reductase pre-incubated for 10 mins before T[S]2 and NADPH addition.
The target in series [2] is T1, Trypanothione reductase. In words: Inhibition of dimerization of HIS/FLAG tagged Leishmania infantum trypanothione reductase incubated for 16 hrs in presence of dimerization buffer by ELISA.
The test system of series [3] is Leishmania infantum. In words: Leishmanicidal activity against Leishmania infantum MCAN/ES/89/IPZ229/1/89 promastigotes at 25 uM after 24 hrs by propidium iodide staining based flow cytometry. The series is classed as functional, organism-based.
Series [4] relates to Leishmania infantum. Description: Leishmanicidal activity against Leishmania infantum amastigotes at 25 uM after 24 hrs by propidium iodide staining based flow cytometry. The series is classed as functional, organism-based.
The target of the next series is Proteinase K (Engyodontium album, UniProt P06873). Description: Stability assessed as Tritirachium album proteinase K-mediated compound degradation by measuring half life at 50 uM by HPLC method. Type of series: ADME. To be noted: parengyodontium album.
Sequence of Proteinase K (P06873 whole entry): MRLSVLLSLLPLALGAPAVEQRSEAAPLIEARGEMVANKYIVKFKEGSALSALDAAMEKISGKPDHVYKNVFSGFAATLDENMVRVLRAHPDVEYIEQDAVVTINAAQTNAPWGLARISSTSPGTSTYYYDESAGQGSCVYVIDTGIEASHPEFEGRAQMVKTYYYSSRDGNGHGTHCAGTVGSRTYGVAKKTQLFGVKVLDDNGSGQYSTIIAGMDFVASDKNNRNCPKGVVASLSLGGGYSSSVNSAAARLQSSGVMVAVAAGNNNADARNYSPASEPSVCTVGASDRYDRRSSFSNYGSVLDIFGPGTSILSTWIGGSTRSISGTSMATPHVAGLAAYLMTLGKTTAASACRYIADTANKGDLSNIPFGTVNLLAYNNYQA

T1 sequence (A4HSF7 whole entry): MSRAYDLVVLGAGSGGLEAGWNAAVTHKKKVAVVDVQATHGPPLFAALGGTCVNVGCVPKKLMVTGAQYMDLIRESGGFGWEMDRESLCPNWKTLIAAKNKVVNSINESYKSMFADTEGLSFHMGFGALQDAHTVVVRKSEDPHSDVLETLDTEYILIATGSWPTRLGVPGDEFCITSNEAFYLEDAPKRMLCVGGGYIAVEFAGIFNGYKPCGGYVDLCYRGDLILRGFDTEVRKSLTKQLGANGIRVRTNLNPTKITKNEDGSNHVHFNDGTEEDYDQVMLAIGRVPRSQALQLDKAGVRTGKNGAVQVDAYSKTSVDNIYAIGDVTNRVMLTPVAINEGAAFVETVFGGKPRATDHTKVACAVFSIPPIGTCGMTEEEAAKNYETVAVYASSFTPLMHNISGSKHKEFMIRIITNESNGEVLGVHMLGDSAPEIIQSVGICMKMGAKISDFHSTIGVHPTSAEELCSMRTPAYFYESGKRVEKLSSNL

The IC50 is the concentration that gives 50% inhibition. For `CCCC[C@H](NC(=O)C[C@H](CCCCN)NC(=O)[C@H](CCCC)NC(=O)[C@H](CO)NC(=O)[C@@H](NC(=O)C[C@H](C)NC(=O)[C@@H](NC(=O)[C@H](CO)NC(=O)[C@H](CCC(N)=O)NC(=O)C[C@@H](NC(=O)[C@@H](NC(=O)[C@H](CCCCN)NC(=O)[C@@H]1CCCN1C(C)=O)[C@@H](C)CC)[C@@H](C)CC)C(C)C)[C@@H](C)CC)C(N)=O`, the half-inhibitory concentration (IC50) at Trypanothione reductase [1] was 5.38 µM; on Trypanothione reductase [2], 13.8 µM. Further, the result in the series on Leishmania infantum [3] and in the series on Leishmania infantum [4] was inactive.
`CCCC[C@@H](CC(=O)N[C@@H](CCCCN)C(=O)N[C@@H](CCCC)C(N)=O)NC(=O)[C@@H](CO)NC(=O)[C@@H](NC(=O)C[C@H](C)NC(=O)[C@@H](NC(=O)[C@@H](CO)NC(=O)[C@H](CCC(N)=O)NC(=O)C[C@H](NC(=O)[C@@H](NC(=O)[C@H](CCCCN)NC(=O)C[C@@H]1CCCN1C(C)=O)[C@@H](C)CC)[C@@H](C)CC)C(C)C)[C@@H](C)CC`: the result with Leishmania infantum [3] and in the series with Leishmania infantum [4] was inactive.
Broadly, the half-life is how long it takes for the measured level to halve. As for `CCCC[C@@H](CC(N)=O)NC(=O)[C@H](CCCCN)NC(=O)[C@H](CCCC)NC(=O)C[C@H](CO)NC(=O)[C@@H](NC(=O)CNC(=O)[C@@H](NC(=O)C[C@H](CO)NC(=O)[C@H](CCC(N)=O)NC(=O)[C@@H](NC(=O)C[C@H](NC(=O)[C@H](CCCCN)NC(=O)C[C@@H]1CCCN1C(C)=O)[C@@H](C)CC)[C@@H](C)CC)C(C)C)[C@@H](C)CC`, at Proteinase K, the half-life at 50 µM amounted to 8.62 h. Besides, the IC50 is 3.47 µM on Trypanothione reductase [1] and 21.7 µM at Trypanothione reductase [2]. In addition, the outcome with Leishmania infantum [3] and in the series on Leishmania infantum [4] was inactive.
`CCCC[C@@H](CC(=O)N[C@@H](CCCCN)C(=O)N[C@@H](CCCC)C(N)=O)NC(=O)[C@H](CO)NC(=O)[C@@H](NC(=O)CNC(=O)C[C@H](NC(=O)[C@H](CO)NC(=O)[C@H](CCC(N)=O)NC(=O)C[C@H](NC(=O)[C@@H](NC(=O)[C@H](CCCCN)NC(=O)[C@@H]1CCCN1C(C)=O)[C@@H](C)CC)[C@@H](C)CC)C(C)C)[C@@H](C)CC`: the half-life at 50 µM on Proteinase K was determined as 3.58 h. Moreover, the IC50 is 3.11 µM at Trypanothione reductase [1] and 10.3 µM at Trypanothione reductase [2].
With `CCCC[C@H](NC(=O)[C@H](CCCCN)NC(=O)[C@H](CCCC)NC(=O)[C@@H](CO)NC(=O)[C@@H](NC(=O)CNC(=O)[C@@H](NC(=O)[C@@H](CO)NC(=O)[C@H](CCC(N)=O)NC(=O)[C@@H](NC(=O)[C@@H](NC(=O)[C@H](CCCCN)NC(=O)[C@@H]1CCCN1C(C)=O)[C@@H](C)CC)[C@@H](C)CC)C(C)C)[C@@H](C)CC)C(N)=O`, the result in the series with Leishmania infantum [3] and in the series on Leishmania infantum [4] was inactive.
`CC[C@H](C)[C@H](NC(=O)C[C@H](C)NC(=O)[C@@H](NC(=O)[C@H](CO)NC(=O)[C@H](CCC(N)=O)NC(=O)C[C@@H](NC(=O)[C@@H](NC(=O)[C@H](CCCCN)NC(=O)C[C@@H]1CCCN1C(C)=O)[C@@H](C)CC)[C@@H](C)CC)C(C)C)C(=O)O`: the 50% inhibitory concentration (IC50) is 39.8 µM at Trypanothione reductase [1] and 50.4 µM at Trypanothione reductase [2]. The result in the series on Leishmania infantum [3] and in the series on Leishmania infantum [4] was inactive.
As for `CC[C@H](C)[C@H](NC(=O)CNC(=O)[C@@H](NC(=O)[C@@H](CO)NC(=O)[C@H](CCC(N)=O)NC(=O)[C@@H](NC(=O)[C@@H](NC(=O)[C@H](CCCCN)NC(=O)[C@@H]1CCCN1C(C)=O)[C@@H](C)CC)[C@@H](C)CC)C(C)C)C(N)=O`, the result with Leishmania infantum [3] and in the series on Leishmania infantum [4] was inactive.
Regarding `CCCC[C@H](NC(=O)C[C@H](CCCCN)NC(=O)[C@H](CCCC)NC(=O)C[C@H](CO)NC(=O)C[C@@H](NC(=O)CNC(=O)[C@@H](NC(=O)C[C@H](CO)NC(=O)C[C@H](CCC(N)=O)NC(=O)[C@@H](NC(=O)[C@@H](NC(=O)C[C@H](CCCCN)NC(=O)C[C@@H]1CCCN1C(C)=O)[C@@H](C)CC)[C@@H](C)CC)C(C)C)[C@@H](C)CC)C(N)=O`, the half-life at 50 µM at Proteinase K amounted to 5.28 h. Besides, the concentration for half-maximal inhibition (IC50) on Trypanothione reductase [1] was 9.28 µM; on Trypanothione reductase [2], 15.5 µM. The result in the series on Leishmania infantum [3] and with Leishmania infantum [4] was inactive.
As for `CCCC[C@H](NC(=O)[C@H](CO)NC(=O)[C@@H](NC(=O)C[C@H](C)NC(=O)[C@@H](NC(=O)[C@H](CO)NC(=O)[C@H](CCC(N)=O)NC(=O)C[C@@H](NC(=O)[C@@H](NC(=O)[C@H](CCCCN)NC(=O)[C@@H]1CCCN1C(C)=O)[C@@H](C)CC)[C@@H](C)CC)C(C)C)[C@@H](C)CC)C(N)=O`, the values for the IC50 at Trypanothione reductase [1] and at Trypanothione reductase [2] were 28.5 µM and 47.3 µM, respectively. Besides, the result in the series with Leishmania infantum [3] and in the series on Leishmania infantum [4] was inactive.
Take `CC[C@H](C)[C@H](NC(=O)CNC(=O)[C@@H](NC(=O)C[C@H](CO)NC(=O)[C@H](CCC(N)=O)NC(=O)[C@@H](NC(=O)C[C@@H](NC(=O)[C@H](CCCCN)NC(=O)[C@@H]1CCCN1C(C)=O)[C@@H](C)CC)[C@@H](C)CC)C(C)C)C(N)=O`: on Proteinase K, the half-life at 50 µM is 3.97 h. Also, the IC50 at Trypanothione reductase [1] is more than 75 µM; at Trypanothione reductase [2], 22.3 µM. The result in the series on Leishmania infantum [3] and with Leishmania infantum [4] was inactive.
As to `CCCC[C@H](NC(=O)[C@H](CCCCN)NC(=O)[C@H](CCCC)NC(=O)[C@H](CO)NC(=O)[C@@H](NC(=O)CNC(=O)[C@@H](NC(=O)[C@H](CO)NC(=O)[C@H](CCC(N)=O)NC(=O)[C@@H](NC(=O)[C@@H](NC(=O)[C@H](CCCCN)NC(=O)[C@@H]1CCCN1C(C)=O)[C@@H](C)CC)[C@@H](C)CC)C(C)C)[C@@H](C)CC)C(N)=O`, the half-life at 50 µM at Proteinase K is 0.383 h. In addition, the IC50 came to 1.2 µM at Trypanothione reductase [1] and 10.3 µM on Trypanothione reductase [2].
On to `CCCC[C@@H](CC(=O)N[C@@H](CCCCN)C(=O)N[C@@H](CCCC)C(N)=O)NC(=O)[C@H](CO)NC(=O)[C@@H](NC(=O)C[C@H](C)NC(=O)[C@@H](NC(=O)[C@H](CO)NC(=O)[C@H](CCC(N)=O)NC(=O)C[C@H](NC(=O)[C@@H](NC(=O)[C@H](CCCCN)NC(=O)C[C@@H]1CCCN1C(C)=O)[C@@H](C)CC)[C@@H](C)CC)C(C)C)[C@@H](C)CC`, for which the half-life at 50 µM at Proteinase K is 0.383 h. Further, the IC50 on Trypanothione reductase [1] came out at 2.69 µM; at Trypanothione reductase [2], 13.9 µM.
Regarding `CC[C@H](C)[C@H](NC(=O)CNC(=O)[C@@H](NC(=O)[C@H](CO)NC(=O)[C@H](CCC(N)=O)NC(=O)[C@@H](NC(=O)[C@@H](NC(=O)[C@H](CCCCN)NC(=O)[C@@H]1CCCN1C(C)=O)[C@@H](C)CC)[C@@H](C)CC)C(C)C)C(N)=O`, the IC50 at Trypanothione reductase [1] amounted to 3.59 µM; on Trypanothione reductase [2] it was 15.7 µM.
Regarding `CCCC[C@H](NC(=O)[C@H](CO)NC(=O)[C@@H](NC(=O)CNC(=O)[C@@H](NC(=O)[C@H](CO)NC(=O)[C@H](CCC(N)=O)NC(=O)[C@@H](NC(=O)[C@@H](NC(=O)[C@H](CCCCN)NC(=O)[C@@H]1CCCN1C(C)=O)[C@@H](C)CC)[C@@H](C)CC)C(C)C)[C@@H](C)CC)C(N)=O`, the half-inhibitory concentration (IC50) at Trypanothione reductase [1] is 0.82 µM; at Trypanothione reductase [2], 4.21 µM.
Turning to `CC[C@H](C)[C@H](CC(=O)N[C@@H](CCC(N)=O)C(=O)N[C@@H](CO)C(=O)N[C@@H](CC(=O)NCC(=O)N[C@H](C(N)=O)[C@@H](C)CC)C(C)C)NC(=O)[C@@H](NC(=O)[C@H](CCCCN)NC(=O)[C@@H]1CCCN1C(C)=O)[C@@H](C)CC`, the IC50 on Trypanothione reductase [1] is more than 75 µM; on Trypanothione reductase [2], 41.8 µM. Besides, the outcome in the series with Leishmania infantum [3] and in the series on Leishmania infantum [4] was inactive.
For `CCCC[C@@H](CC(N)=O)NC(=O)[C@H](CCCCN)NC(=O)[C@H](CCCC)NC(=O)C[C@H](CO)NC(=O)C[C@H](NC(=O)CNC(=O)[C@@H](NC(=O)C[C@H](CO)NC(=O)[C@H](CCC(N)=O)NC(=O)[C@@H](NC(=O)[C@@H](NC(=O)C[C@H](CCCCN)NC(=O)C[C@@H]1CCCN1C(C)=O)[C@@H](C)CC)[C@@H](C)CC)C(C)C)[C@@H](C)CC`, the half-life at 50 µM on Proteinase K was 2.18 h. Also, the 50% inhibitory concentration (IC50) turned out to be 2.08 µM on Trypanothione reductase [1] and 18 µM on Trypanothione reductase [2]. The result in the series on Leishmania infantum [3] and with Leishmania infantum [4] was inactive.
With `CC[C@H](C)[C@H](CC(=O)N[C@H](C(=O)N[C@@H](CCC(N)=O)C(=O)N[C@@H](CO)C(=O)N[C@@H](CC(=O)NCC(=O)N[C@H](C(N)=O)[C@@H](C)CC)C(C)C)[C@@H](C)CC)NC(=O)[C@H](CCCCN)NC(=O)[C@@H]1CCCN1C(C)=O`, the half-maximal inhibitory concentration (IC50) at Trypanothione reductase [1] was more than 75 µM; on Trypanothione reductase [2], 53 µM. The outcome in the series with Leishmania infantum [3] and in the series on Leishmania infantum [4] was inactive.
For `CCCC[C@@H](CC(=O)N[C@@H](CCCCN)C(=O)N[C@@H](CCCC)C(N)=O)NC(=O)[C@@H](CO)NC(=O)[C@@H](NC(=O)CNC(=O)C[C@H](NC(=O)[C@H](CO)NC(=O)[C@H](CCC(N)=O)NC(=O)C[C@H](NC(=O)[C@@H](NC(=O)[C@H](CCCCN)NC(=O)[C@@H]1CCCN1C(C)=O)[C@@H](C)CC)[C@@H](C)CC)C(C)C)[C@@H](C)CC`, the result in the series with Leishmania infantum [3] and in the series with Leishmania infantum [4] was inactive.
As to `CCCC[C@H](NC(=O)[C@@H](CO)NC(=O)[C@@H](NC(=O)CNC(=O)[C@@H](NC(=O)[C@@H](CO)NC(=O)[C@H](CCC(N)=O)NC(=O)[C@@H](NC(=O)[C@@H](NC(=O)[C@H](CCCCN)NC(=O)[C@@H]1CCCN1C(C)=O)[C@@H](C)CC)[C@@H](C)CC)C(C)C)[C@@H](C)CC)C(N)=O`, the outcome in the series on Leishmania infantum [3] and in the series on Leishmania infantum [4] was inactive.
As to `CCCC[C@H](NC(=O)[C@H](CCCCN)NC(=O)[C@H](CCCC)NC(=O)[C@H](CO)NC(=O)[C@@H](NC(=O)CNC(=O)C[C@H](NC(=O)[C@H](CO)NC(=O)[C@H](CCC(N)=O)NC(=O)[C@@H](NC(=O)C[C@H](NC(=O)[C@H](CCCCN)NC(=O)[C@@H]1CCCN1C(C)=O)[C@@H](C)CC)[C@@H](C)CC)C(C)C)[C@@H](C)CC)C(N)=O`, the concentration for half-maximal inhibition (IC50) stood at 8.78 µM at Trypanothione reductase [1] and 13.7 µM at Trypanothione reductase [2]. Besides, the outcome with Leishmania infantum [3] and in the series on Leishmania infantum [4] was inactive.
